Columns and labels:
[1] = molecular target: T1, rat GPR14 (U-II receptor) (Rattus norvegicus, UniProt P49684); experiment: Rat UII Calcium Mobilization FLIPR Assay; type: cell-based; settings: average value for the compound tested; read-out: Rat UII FLIPR Average IC50
T1 construct: expressed in transfected cells
T1 sequence (P49684 1-386): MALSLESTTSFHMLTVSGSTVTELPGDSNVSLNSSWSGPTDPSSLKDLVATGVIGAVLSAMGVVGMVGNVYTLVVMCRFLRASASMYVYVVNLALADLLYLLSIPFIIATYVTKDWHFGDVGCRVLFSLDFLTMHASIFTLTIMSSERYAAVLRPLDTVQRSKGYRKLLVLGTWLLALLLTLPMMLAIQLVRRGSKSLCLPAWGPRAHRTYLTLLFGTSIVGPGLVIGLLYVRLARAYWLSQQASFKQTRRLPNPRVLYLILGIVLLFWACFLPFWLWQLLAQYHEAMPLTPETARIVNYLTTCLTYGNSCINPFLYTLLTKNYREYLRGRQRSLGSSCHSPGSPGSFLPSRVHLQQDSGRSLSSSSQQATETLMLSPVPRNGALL
Outline: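 CHO cells stably expressing rat U-II receptor, seeded 24 h before assay, were loaded with FLIPR calcium dye in HBSS/20 mM HEPES/0.1% BSA/2.5 mM probenecid, pH 7.4, for 1 h at 37° C. Calcium mobilization then read by FLIPR at 23° C.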

[2] = molecular target: T2, Human UII receptor, 6D9 human rhabdomyosarcoma cells (Homo sapiens, UniProt Q9UKP6); experiment: Human UII Calcium Mobilization Assay; type: cell-based; settings: average value, FLIPR TETRA, read-out: Human UII Ca^+ Mobilization Average IC50
T2 construct: 6D9: isolated by dilution subcloning of RMS13 cells, ATCC® Number: CRL-2061; host or cells: 6D9 human rhabdomyosarcoma cells (subclone of RMS13)
T2 sequence (Q9UKP6 1-389): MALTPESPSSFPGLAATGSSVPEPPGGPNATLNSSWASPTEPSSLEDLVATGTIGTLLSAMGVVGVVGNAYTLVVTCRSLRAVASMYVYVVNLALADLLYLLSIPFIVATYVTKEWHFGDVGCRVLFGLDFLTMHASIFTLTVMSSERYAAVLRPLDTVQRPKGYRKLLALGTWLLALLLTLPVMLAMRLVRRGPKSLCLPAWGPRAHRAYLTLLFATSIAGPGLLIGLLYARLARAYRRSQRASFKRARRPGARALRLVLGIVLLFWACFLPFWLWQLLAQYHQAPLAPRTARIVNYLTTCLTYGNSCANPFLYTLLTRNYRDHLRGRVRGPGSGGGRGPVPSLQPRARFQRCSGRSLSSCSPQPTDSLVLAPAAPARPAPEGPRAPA
Outline: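 6D9 rhabdomyosarcoma cells loaded 45 min at 37° C with calcium dye (1.25 mM probenecid, 0.01% FBS, HBSS/20 mM HEPES). Antagonist and U-II agonist added at room temperature; FLIPR fluorescence read over 4 min; EC50/IC50 fitted. DMSO ≤0.1% final.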

[3] = molecular target: T3, endogenous human UII receptor (Homo sapiens, UniProt Q9UKP6); experiment: Human Radioligand Binding Assay ((^125I)-U-II binding to human skeletal muscle myoblasts)
T3 sequence (Q9UKP6 1-389): T2 sequence (Q9UKP6 1-389)

Row | Compound | IC50 [1] | IC50 [2] | Ki [3]
1 | COCCC(=O)NCCC[C@H](c1ccc(OC)c(OC)c1)N1C(=O)c2cccc(N3CCN([C@H](C)c4ccccc4)CC3)c2C1=O [Cpd 177, (R)-N-(4-(3,4-dimethoxy-phenyl)-4-{1,3-dioxo-4-[4-(1R)-(1-phenyl-ethyl)-piperazin-1-yl]-1,3-dihydro-isoindol-2-yl}-butyl)-3-methoxy-propionamide] | 7.1 nM | 1100 nM | 93 nM
2 | COc1ccc([C@@H](CCCNC(=O)C2CCC2)N2C(=O)c3cccc(N4CCN([C@H](C)c5ccccc5)CC4)c3C2=O)cc1OC [Cpd 178, (R)-cyclobutanecarboxylic acid (4-(3,4-dimethoxy-phenyl)-4-{1,3-dioxo-4-[4-(1R)-(1-phenyl-ethyl)-piperazin-1-yl]-1,3-dihydro-isoindol-2-yl}-butyl)-amide] | 13 nM | 560 nM | 22 nM
3 | COc1ccc([C@@H](CCCNC(=O)C2CCCC2)N2C(=O)c3cccc(N4CCN([C@H](C)c5ccccc5)CC4)c3C2=O)cc1OC [Cpd 179, (R)-cyclopentanecarboxylic acid (4-(3,4-dimethoxy-phenyl)-4-{1,3-dioxo-4-[4-(1R)-(1-phenyl-ethyl)-piperazin-1-yl]-1,3-dihydro-isoindol-2-yl}-butyl)-amide] | 24 nM | 1100 nM | 43 nM
4 | CCC(=O)NCCC[C@H](c1ccc(OC)c(OC)c1)N1C(=O)c2cccc(N3CCN([C@H](C)c4ccccc4)CC3)c2C1=O [Cpd 180, (R)-N-(4-(3,4-dimethoxy-phenyl)-4-{1,3-dioxo-4-[4-(1R)-(1-phenyl-ethyl)-piperazin-1-yl]-1,3-dihydro-isoindol-2-yl}-butyl)-propionamide] | 8.8 nM | 570 nM | 23 nM
5 | COc1ccc([C@@H](CCCNC(=O)CC(C)C)N2C(=O)c3cccc(N4CCN([C@H](C)c5ccccc5)CC4)c3C2=O)cc1OC [Cpd 181, (R)-N-(4-(3,4-dimethoxy-phenyl)-4-{1,3-dioxo-4-[4-(1R)-(1-phenyl-ethyl)-piperazin-1-yl]-1,3-dihydro-isoindol-2-yl}-butyl)-3-methyl-butyramide] | 12 nM | 970 nM | 41 nM
6 | CCOCC(=O)NCCC[C@H](c1ccc(OC)c(OC)c1)N1C(=O)c2cccc(N3CCN([C@H](C)c4ccccc4)CC3)c2C1=O [Cpd 182, (R)-N-(4-(3,4-dimethoxy-phenyl)-4-{1,3-dioxo-4-[4-(1R)-(1-phenyl-ethyl)-piperazin-1-yl]-1,3-dihydro-isoindol-2-yl}-butyl)-2-ethoxy-acetamide] | 9.6 nM | 580 nM | 40 nM
7 | COc1ccc([C@@H](CCCNC(=O)c2cnn(C)c2Cl)N2C(=O)c3cccc(N4CCN([C@H](C)c5ccccc5)CC4)c3C2=O)cc1OC [Cpd 183, (R)-5-chloro-1-methyl-1H-pyrazole-4-carboxylic acid (4-(3,4-dimethoxy-phenyl)-4-{1,3-dioxo-4-[4-(1R)-(1-phenyl-ethyl)-piperazin-1-yl]-1,3-dihydro-isoindol-2-yl}-butyl)-amide] | 19 nM | 1300 nM | 55 nM
8 | COc1ccc([C@@H](CCCNC(=O)c2c(C)nn(C)c2C)N2C(=O)c3cccc(N4CCN([C@H](C)c5ccccc5)CC4)c3C2=O)cc1OC [Cpd 184, (R)-1,3,5-trimethyl-1H-pyrazole-4-carboxylic acid (4-(3,4-dimethoxy-phenyl)-4-{1,3-dioxo-4-[4-(1R)-(1-phenyl-ethyl)-piperazin-1-yl]-1,3-dihydro-isoindol-2-yl}-butyl)-amide] | 15 nM | 1100 nM | 56 nM
9 | COc1ccc([C@@H](CCCNC(=O)C(C)(C)C)N2C(=O)c3cccc(N4CCN([C@H](C)c5ccccc5)CC4)c3C2=O)cc1OC [Cpd 185, (R)-N-(4-(3,4-dimethoxy-phenyl)-4-{1,3-dioxo-4-[4-(1R)-(1-phenyl-ethyl)-piperazin-1-yl]-1,3-dihydro-isoindol-2-yl}-butyl)-2,2-dimethyl-propionamide] | 9.8 nM | 1000 nM | 23 nM
10 | COc1ccc([C@@H](CCCNC(=O)c2ccoc2)N2C(=O)c3cccc(N4CCN([C@H](C)c5ccccc5)CC4)c3C2=O)cc1OC [Cpd 186, (R)-furan-3-carboxylic acid (4-(3,4-dimethoxy-phenyl)-4-{1,3-dioxo-4-[4-(1R)-(1-phenyl-ethyl)-piperazin-1-yl]-1,3-dihydro-isoindol-2-yl}-butyl)-amide] | 13 nM | 820 nM | 37 nM
11 | COc1ccc([C@@H](CCCNC(=O)c2ccno2)N2C(=O)c3cccc(N4CCN([C@H](C)c5ccccc5)CC4)c3C2=O)cc1OC [Cpd 187, (R)-isoxazole-5-carboxylic acid (4-(3,4-dimethoxy-phenyl)-4-{1,3-dioxo-4-[4-(1R)-(1-phenyl-ethyl)-piperazin-1-yl]-1,3-dihydro-isoindol-2-yl}-butyl)-amide] | 11 nM | 910 nM | 50 nM
12 | COc1ccc([C@@H](CCCNC(=O)c2cc(C)[nH]c2C)N2C(=O)c3cccc(N4CCN([C@H](C)c5ccccc5)CC4)c3C2=O)cc1OC [Cpd 188, (R)-2,5-dimethyl-1H-pyrrole-3-carboxylic acid (4-(3,4-dimethoxy-phenyl)-4-{1,3-dioxo-4-[4-(1R)-(1-phenyl-ethyl)-piperazin-1-yl]-1,3-dihydro-isoindol-2-yl}-butyl)-amide] | 20 nM | 1300 nM | 120 nM
13 | CCOCCC(=O)NCCC[C@H](c1ccc(OC)c(OC)c1)N1C(=O)c2cccc(N3CCN([C@H](C)c4ccccc4)CC3)c2C1=O [Cpd 189, (R)-N-(4-(3,4-dimethoxy-phenyl)-4-{1,3-dioxo-4-[4-(1R)-(1-phenyl-ethyl)-piperazin-1-yl]-1,3-dihydro-isoindol-2-yl}-butyl)-3-ethoxy-propionamide] | 8.6 nM | 1100 nM | 57 nM
14 | COc1ccc([C@@H](CCCNC(=O)c2cn[nH]c2)N2C(=O)c3cccc(N4CCN([C@H](C)c5ccccc5)CC4)c3C2=O)cc1OC [Cpd 190, (R)-1H-pyrazole-4-carboxylic acid (4-(3,4-dimethoxy-phenyl)-4-{1,3-dioxo-4-[4-(1R)-(1-phenyl-ethyl)-piperazin-1-yl]-1,3-dihydro-isoindol-2-yl}-butyl)-amide] | 6.1 nM | 290 nM | 20 nM
15 | COc1ccc([C@@H](CCCNC(=O)[C@@H]2CCCN2C)N2C(=O)c3cccc(N4CCN([C@H](C)c5ccccc5)CC4)c3C2=O)cc1OC [Cpd 191, (S)-1-methyl-pyrrolidine-2-carboxylic acid (R)-(4-(3,4-dimethoxy-phenyl)-4-{1,3-dioxo-4-[4-(1R)-(1-phenyl-ethyl)-piperazin-1-yl]-1,3-dihydro-isoindol-2-yl}-butyl)-amide] | 31 nM | 1500 nM | 69 nM
16 | COc1ccc([C@@H](CCCNS(=O)(=O)c2cccs2)N2C(=O)c3cccc(N4CCN(C5CCC5)CC4)c3C2=O)cc1OC [Cpd 192, (R)-thiophene-2-sulfonic acid [4-[4-(4-cyclobutyl-piperazin-1-yl)-1,3-dioxo-1,3-dihydro-isoindol-2-yl]-4-(3,4-dimethoxy-phenyl)-butyl]-amide] | 7 nM | 640 nM | 30 nM
17 | COc1ccc([C@@H](CCCNS(=O)(=O)c2cccs2)N2C(=O)c3cccc(N4CCN(C5CCCC5)CC4)c3C2=O)cc1OC [Cpd 193, (R)-thiophene-2-sulfonic acid [4-[4-(4-cyclopentyl-piperazin-1-yl)-1,3-dioxo-1,3-dihydro-isoindol-2-yl]-4-(3,4-dimethoxy-phenyl)-butyl]-amide] | 7.9 nM | 520 nM | 86 nM
18 | C=CCN1CCN(c2cccc3c2C(=O)N([C@H](CCCNS(=O)(=O)c2cccs2)c2ccc(OC)c(OC)c2)C3=O)CC1 [Cpd 194, (R)-thiophene-2-sulfonic acid [4-[4-(4-allyl-piperazin-1-yl)-1,3-dioxo-1,3-dihydro-isoindol-2-yl]-4-(3,4-dimethoxy-phenyl)-butyl]-amide] | 10 nM | 990 nM | 170 nM
